# The source made the active and inactive calls. No cut-off for these calls is given here.
# What was measured:
# [1] = biological target: Carbonic anhydrase 5B, mitochondrial (Homo sapiens, UniProt Q9Y2D0); experiment: Inhibition of human carbonic anhydrase 5B incubated for 15 mins prior to testing by stopped-flow CO2 hydration assay
# Carbonic anhydrase 12 = Carbonic anhydrase 12 (Homo sapiens, UniProt O43570); experiment: Inhibition of human carbonic anhydrase 12 incubated for 15 mins prior to testing by stopped-flow CO2 hydration assay
# Carbonic anhydrase 7 = Carbonic anhydrase 7 (Homo sapiens, UniProt P43166); experiment: Inhibition of human carbonic anhydrase 7 incubated for 15 mins prior to testing by stopped-flow CO2 hydration assay
# [2] = biological target: Carbonic anhydrase 5A, mitochondrial (Homo sapiens, UniProt P35218); experiment: Inhibition of human carbonic anhydrase 5A incubated for 15 mins prior to testing by stopped-flow CO2 hydration assay
# Carbonic anhydrase 2 = Carbonic anhydrase 2 (Homo sapiens, UniProt P00918); experiment: Inhibition of human carbonic anhydrase 2 incubated for 15 mins prior to testing by stopped-flow CO2 hydration assay
# Carbonic anhydrase 1 = Carbonic anhydrase 1 (Homo sapiens, UniProt P00915); experiment: Inhibition of human carbonic anhydrase 1 incubated for 15 mins prior to testing by stopped-flow CO2 hydration assay
# Carbonic anhydrase 13 = Carbonic anhydrase 13 (Homo sapiens, UniProt Q8N1Q1); experiment: Inhibition of human carbonic anhydrase 13 incubated for 15 mins prior to testing by stopped-flow CO2 hydration assay
# Carbonic anhydrase 4 = Carbonic anhydrase 4 (Homo sapiens, UniProt P22748); experiment: Inhibition of human carbonic anhydrase 4 incubated for 15 mins prior to testing by stopped-flow CO2 hydration assay
# Carbonic anhydrase 9 = Carbonic anhydrase 9 (Homo sapiens, UniProt Q16790); experiment: Inhibition of human carbonic anhydrase 9 incubated for 15 mins prior to testing by stopped-flow CO2 hydration assay
# Carbonic anhydrase 3 = Carbonic anhydrase 3 (Homo sapiens, UniProt P07451); experiment: Inhibition of human carbonic anhydrase 3 incubated for 15 mins prior to testing by stopped-flow CO2 hydration assay
# Carbonic anhydrase 6 = Carbonic anhydrase 6 (Homo sapiens, UniProt P23280); experiment: Inhibition of human carbonic anhydrase 6 incubated for 15 mins prior to testing by stopped-flow CO2 hydration assay
# Mus musculus [3] = experiment: Analgesic activity in oxaliplatin-induced neuropathic pain CD-1 albino mouse model assessed as licking latency at 30 to 100 mg/kg, po treated on day 15 post oxaliplatin treatment by cold plate test; type: functional, organism-based
# Mus musculus [4] = experiment: Analgesic activity in oxaliplatin-induced neuropathic pain CD-1 albino mouse model assessed as decrease in pain-related behaviour measured as licking latency at 100 mg/kg, po treated on day 15 post oxaliplatin treatment and measured after 45 mins by cold plate test; type: functional, organism-based
# Mus musculus [5] = experiment: Analgesic activity in orally dosed oxaliplatin-induced neuropathic pain CD-1 albino mouse model assessed as decrease in pain-related behaviour measured as licking latency treated on day 15 post oxaliplatin treatment by cold plate test; type: functional, organism-based
# Mus musculus [6] = experiment: Analgesic activity in oxaliplatin-induced neuropathic pain CD-1 albino mouse model assessed as decrease in pain-related behaviour measured as licking latency at 100 mg/kg, po treated on day 15 post oxaliplatin treatment and measured after 45 to 60 mins by cold plate test; type: functional, organism-based
# Chain of Carbonic anhydrase 5B, mitochondrial (Q9Y2D0 whole entry): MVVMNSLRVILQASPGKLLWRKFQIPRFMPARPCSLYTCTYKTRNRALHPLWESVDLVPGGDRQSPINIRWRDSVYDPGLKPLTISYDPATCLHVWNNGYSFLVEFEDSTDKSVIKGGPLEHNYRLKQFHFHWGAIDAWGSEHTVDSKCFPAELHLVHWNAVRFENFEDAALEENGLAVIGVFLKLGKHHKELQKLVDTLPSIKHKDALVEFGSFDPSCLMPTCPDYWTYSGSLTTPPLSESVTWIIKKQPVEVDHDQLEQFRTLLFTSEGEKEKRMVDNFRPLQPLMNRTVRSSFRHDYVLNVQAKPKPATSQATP
# Chain of Carbonic anhydrase 7 (P43166 whole entry): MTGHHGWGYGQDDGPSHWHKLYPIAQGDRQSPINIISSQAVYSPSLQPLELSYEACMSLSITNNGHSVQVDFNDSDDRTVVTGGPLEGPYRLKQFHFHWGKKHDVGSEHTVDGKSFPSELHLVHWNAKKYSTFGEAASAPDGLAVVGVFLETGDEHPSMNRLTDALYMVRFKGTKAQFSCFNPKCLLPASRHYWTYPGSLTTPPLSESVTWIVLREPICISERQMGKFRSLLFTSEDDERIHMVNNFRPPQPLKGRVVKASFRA
# Chain of Carbonic anhydrase 1 (P00915 whole entry): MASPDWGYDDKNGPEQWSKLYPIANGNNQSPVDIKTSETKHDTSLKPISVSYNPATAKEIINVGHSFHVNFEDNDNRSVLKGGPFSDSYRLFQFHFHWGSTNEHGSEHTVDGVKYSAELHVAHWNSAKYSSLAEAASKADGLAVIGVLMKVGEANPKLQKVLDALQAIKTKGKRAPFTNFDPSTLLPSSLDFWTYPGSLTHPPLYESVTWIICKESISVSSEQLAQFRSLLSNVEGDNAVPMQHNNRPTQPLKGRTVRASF
# Chain of Carbonic anhydrase 3 (P07451 whole entry): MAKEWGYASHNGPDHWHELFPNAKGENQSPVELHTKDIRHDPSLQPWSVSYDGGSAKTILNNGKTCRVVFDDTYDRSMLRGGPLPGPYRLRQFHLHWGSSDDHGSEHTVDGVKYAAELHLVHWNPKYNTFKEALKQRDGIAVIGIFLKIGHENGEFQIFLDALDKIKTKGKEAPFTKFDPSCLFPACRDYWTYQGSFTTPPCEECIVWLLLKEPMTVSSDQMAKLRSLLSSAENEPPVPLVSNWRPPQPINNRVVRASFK
# Chain of Carbonic anhydrase 5A, mitochondrial (P35218 whole entry): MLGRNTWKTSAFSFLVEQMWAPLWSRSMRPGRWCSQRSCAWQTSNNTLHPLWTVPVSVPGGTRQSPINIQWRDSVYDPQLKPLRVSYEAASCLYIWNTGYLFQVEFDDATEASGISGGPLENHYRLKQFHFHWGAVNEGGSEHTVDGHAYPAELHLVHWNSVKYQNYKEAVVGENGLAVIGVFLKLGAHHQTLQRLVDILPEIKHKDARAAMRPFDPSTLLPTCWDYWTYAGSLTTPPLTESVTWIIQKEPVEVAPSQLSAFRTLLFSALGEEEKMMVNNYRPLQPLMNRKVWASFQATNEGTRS
# Chain of Carbonic anhydrase 6 (P23280 whole entry): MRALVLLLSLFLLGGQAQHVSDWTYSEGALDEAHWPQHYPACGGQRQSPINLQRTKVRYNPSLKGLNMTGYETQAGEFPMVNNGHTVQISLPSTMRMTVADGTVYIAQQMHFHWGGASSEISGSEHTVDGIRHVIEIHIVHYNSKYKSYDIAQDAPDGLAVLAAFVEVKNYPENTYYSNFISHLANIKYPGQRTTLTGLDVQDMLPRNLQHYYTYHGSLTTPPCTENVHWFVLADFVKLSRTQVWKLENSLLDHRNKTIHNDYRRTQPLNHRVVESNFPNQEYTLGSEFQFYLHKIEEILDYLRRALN
# Chain of Carbonic anhydrase 13 (Q8N1Q1 whole entry): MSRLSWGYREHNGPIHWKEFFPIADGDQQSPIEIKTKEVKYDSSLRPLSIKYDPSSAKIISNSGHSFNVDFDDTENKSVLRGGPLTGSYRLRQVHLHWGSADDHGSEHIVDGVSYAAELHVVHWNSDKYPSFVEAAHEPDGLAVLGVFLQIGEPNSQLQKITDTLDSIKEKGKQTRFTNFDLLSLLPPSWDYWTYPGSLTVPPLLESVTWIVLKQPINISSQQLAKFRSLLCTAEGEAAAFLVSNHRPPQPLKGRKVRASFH
# Chain of Carbonic anhydrase 12 (O43570 whole entry): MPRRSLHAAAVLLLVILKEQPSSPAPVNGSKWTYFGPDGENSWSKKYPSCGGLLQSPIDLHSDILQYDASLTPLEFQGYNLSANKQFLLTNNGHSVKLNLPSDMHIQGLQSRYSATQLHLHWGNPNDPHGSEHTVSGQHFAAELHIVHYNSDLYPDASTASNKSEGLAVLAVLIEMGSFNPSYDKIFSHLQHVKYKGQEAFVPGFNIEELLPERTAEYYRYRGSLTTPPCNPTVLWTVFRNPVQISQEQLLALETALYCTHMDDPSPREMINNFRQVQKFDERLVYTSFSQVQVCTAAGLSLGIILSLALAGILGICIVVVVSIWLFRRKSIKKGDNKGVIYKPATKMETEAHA
# Chain of Carbonic anhydrase 4 (P22748 whole entry): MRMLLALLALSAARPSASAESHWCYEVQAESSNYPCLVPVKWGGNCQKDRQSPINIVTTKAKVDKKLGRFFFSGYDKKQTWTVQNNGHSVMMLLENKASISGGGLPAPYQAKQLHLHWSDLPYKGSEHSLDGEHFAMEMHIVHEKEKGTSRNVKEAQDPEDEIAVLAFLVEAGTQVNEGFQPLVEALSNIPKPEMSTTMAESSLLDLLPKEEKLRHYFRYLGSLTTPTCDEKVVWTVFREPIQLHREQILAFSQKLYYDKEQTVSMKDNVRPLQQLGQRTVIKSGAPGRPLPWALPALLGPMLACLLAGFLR
Compound,Ki [1] [nM],Ki (Carbonic anhydrase 12) [nM],Ki (Carbonic anhydrase 7) [nM],Ki [2] [nM],Ki (Carbonic anhydrase 2) [nM],Ki (Carbonic anhydrase 1) [nM],Ki (Carbonic anhydrase 13) [nM],Ki (Carbonic anhydrase 4) [nM],Ki (Carbonic anhydrase 9) [nM],Ki (Carbonic anhydrase 3) [nM],Ki (Carbonic anhydrase 6) [nM],Activity (Mus musculus [3]),Activity (Mus musculus [4]),Activity (Mus musculus [5]),Activity (Mus musculus [6])
NS(=O)(=O)c1ccc(CCNC(=O)CN2C(=O)NC3(CCCCCC3)C2=O)cc1,> 10000,62.9,5.1,6180,0.71,491,> 10000,6490,33.1,> 10000,> 10000,–,–,–,–
CC1CCCC2(C1)NC(=O)N(CC(=O)Nc1ccc(S(N)(=O)=O)cc1)C2=O (stereo not given),–,39.7,1.5,–,0.8,80.3,5780,–,2.6,–,–,–,–,–,–
NS(=O)(=O)c1ccc(NC(=O)CN2C(=O)NC3(CCCCC3)C2=O)cc1,–,46.6,1.3,–,3.1,7.5,809,–,3.3,–,–,inactive,–,–,–
NS(=O)(=O)c1ccc(CCNC(=O)CN2C(=O)NC3(CCCCC3)C2=O)cc1,7320,86.6,6.9,534,7.1,626,7410,8010,76.7,> 10000,> 10000,–,–,–,–
NS(=O)(=O)c1ccc(CNC(=O)CN2C(=O)NC3(CCCCCC3)C2=O)cc1,–,62.3,3.7,–,47.1,649,> 10000,–,3.5,–,–,–,–,–,–
NS(=O)(=O)c1ccc(CNC(=O)CN2C(=O)NC3(CCCCC3)C2=O)cc1,–,728,5.4,–,20.7,470,> 10000,–,105,–,–,–,–,–,–
NS(=O)(=O)c1ccc(C[Se]c2ccc(NC(=O)CN3C(=O)NC4(CCCCC4)C3=O)cc2)cc1,–,4.1,0.2,–,19.6,63.6,> 10000,–,3.3,–,–,–,–,–,–
NS(=O)(=O)c1ccc(CNC(=O)CN2C(=O)NC3(CCCC3)C2=O)cc1,–,9.6,3.6,–,1.5,2770,2170,–,93,–,–,–,–,–,–
CC1CCCC2(C1)NC(=O)N(CC(=O)Nc1ccc([Se]Cc3ccc(S(N)(=O)=O)cc3)cc1)C2=O (stereo not given),–,8.6,4.7,–,0.7,62.3,767,–,17.8,–,–,–,Active,–,–
CC1CCCC2(C1)NC(=O)N(CC(=O)NCc1ccc(S(N)(=O)=O)cc1)C2=O (stereo not given),–,33.3,4.4,–,8.3,853,> 10000,–,229,–,–,–,–,–,–
NS(=O)(=O)c1ccc(C[Se]c2ccc(NC(=O)CN3C(=O)NC4(CCCCCC4)C3=O)cc2)cc1,–,49.4,4.7,–,22.8,384,88.4,–,6.4,–,–,–,Active,–,–
NS(=O)(=O)c1ccc(CCNC(=O)CN2C(=O)NC3(CCCC3)C2=O)cc1,> 10000,6.2,4.7,3940,6.9,6330,> 10000,9660,122,> 10000,> 10000,–,–,–,–
NS(=O)(=O)c1ccc(NC(=O)CN2C(=O)NC3(CCCC3)C2=O)cc1,–,53.7,0.8,–,0.7,141,> 10000,–,11.9,–,–,–,–,Dose-dependent effect,Active
CC1CCCC2(C1)NC(=O)N(CC(=O)NCCc1ccc(S(N)(=O)=O)cc1)C2=O (stereo not given),> 10000,83.4,3,8680,0.7,306,> 10000,7190,477,> 10000,> 10000,–,–,–,–
NS(=O)(=O)c1ccc(NC(=O)CN2C(=O)NC3(CCCCCC3)C2=O)cc1,–,42.8,0.8,–,1.2,237,> 10000,–,4.3,–,–,–,–,–,–

# From ChEMBL document CHEMBL4350990, “Benzensulfonamides bearing spyrohydantoin moieties act as potent inhibitors of human carbonic anhydrases II and VII and show neuropathic pain attenuating effects” (Eur J Med Chem, 2019)
